Here are results for two molecules from ChEMBL document CHEMBL1201862, “PubChem BioAssay data set” (2004).

Values joined by “and” are separate entries in the source; they are usually repeats but may differ in a detail not shown here. Equal values may be shown once.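 Method: 48-hour compound exposure of cells in 96-well plates, five concentrations, linear interpolation of endpoints. At the GI50, growth is halved.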 Active and inactive are the calls of the source. Cut-off read from the data, not from the text of the source: active = GI50 up to about 1.1 µM and inactive = higher.

Holding throughout (test): NCI anticancer screen, dose series, 48 h
Assay [1] relates to HOP-92.
In assay [2] the test system is MOLT-4.
The test system of assay [3] is RXF 393.
Assay [4] deals with TK-10.
In assay [5] the test system is RPMI-8226.
For assay [6], the system named is UO-31.
In assay [7] the test system is SR.
Assay [8] relates to HL-60.
Assay [9] relates to SF-295.
Assay [10] deals with OVCAR-5.
Assay [11] relates to HCT-116.
The test system of assay [12] is SW-620.
The subject of assay [13] is DU-145.
In assay [14] the test system is IGROV-1.
Assay [15] concerns 786-0.
For assay [16], the system named is OVCAR-3.
Assay [17] concerns ACHN.
The subject of assay [18] is MDA-MB-435.
Assay [19] deals with KM12.
Assay [20] has as its system A498.
For assay [21], the system named is CCRF-CEM.
Assay [22] has as its system K562.
In assay [23] the test system is HCT-15.
The test system of assay [24] is SF-539.
In assay [25] the test system is EKVX.
In assay [26] the test system is SNB-19.
In assay [27] the test system is LOX IMVI.
Assay [28] concerns OVCAR-4.
In assay [29] the test system is MCF7.
Assay [30] has as its system SK-MEL-5.
The subject of assay [31] is COLO 205.
Assay [32] has as its system UACC-62.
Assay [33] concerns SK-MEL-28.
The test system of assay [34] is SK-MEL-2.
In assay [35] the test system is U-251.
Assay [36] has as its system M14.
Assay [37] relates to HCC 2998.
Assay [38] relates to SK-OV-3.
Assay [39] has as its system A549.
The subject of assay [40] is UACC-257.

Regarding `CC(=O)OCC1OC(n2c(=S)n(-c3ccc(C)cc3)c(=O)c3ccccc32)C(OC(C)=O)C(OC(C)=O)C1OC(C)=O` (stereo unspecified), the GI50 in assay [1] is 31.6 µM (inactive) and 30.4 µM (inactive); in assay [2], 65.3 µM (inactive); in assay [3], 83 µM (inactive) and 67 µM (inactive); in assay [4] it was 29 µM (inactive); in assay [5], 86.3 µM (inactive) and 49.1 µM (inactive); in assay [6], 62.4 µM (inactive) and 58.1 µM (inactive). The GI50 in assay [7] was 23.7 µM (inactive).
Take `O=c1c2cc(Br)ccc2ncn1COCc1ccccc1`: the GI50 was > 10 µM (inactive) in [8]; > 100 µM (inactive) in assay [9]; > 100 µM (inactive) in [10]; 61.8 µM (inactive) in assay [11]; > 100 µM (inactive) in assay [12]; > 100 µM (inactive) in assay [13]. Also, the GI50 in assay [14] was 56.2 µM (inactive); in [1] it was > 100 µM (inactive); in assay [15], 70.3 µM (inactive); in [16] it was > 100 µM (inactive); in assay [17] it was 23.8 µM (inactive); in assay [18] it was > 100 µM (inactive). For the same molecule, the GI50 in assay [19] was 52.6 µM (inactive); in assay [20], > 100 µM (inactive); in assay [21] it was 71 µM (inactive); in assay [2], 42.8 µM (inactive); in assay [22], 54.6 µM (inactive); in assay [23], 64 µM. Besides, the GI50 in assay [24] was > 100 µM (inactive); in assay [25], 88.3 µM (inactive); in [26] it was 45.6 µM (inactive); in [3], 51.5 µM (inactive); in assay [27], 38.7 µM (inactive); in assay [4], 96.6 µM (inactive). Moreover, the GI50 in [28] was > 100 µM (inactive); in assay [29], 37.1 µM (inactive); in [30], 31 µM (inactive); in [31], 93.8 µM (inactive); in assay [32], 80.5 µM (inactive); in [33], > 100 µM (inactive). The GI50 is > 100 µM (inactive) in assay [34]; > 100 µM (inactive) in assay [35]; 97.7 µM (inactive) in assay [36]; 24.1 µM (inactive) in assay [6]; > 100 µM (inactive) in assay [37]; > 100 µM (inactive) in assay [38]. Further, the GI50 in assay [39] is 52.1 µM (inactive); in assay [40], > 100 µM (inactive); in assay [7] it was 56.5 µM (inactive).
